The test addresses T1, AT1 receptors (Homo sapiens, UniProt P30556).
T1 construct: host or cells: HEK293
T1 sequence (P30556 1-359): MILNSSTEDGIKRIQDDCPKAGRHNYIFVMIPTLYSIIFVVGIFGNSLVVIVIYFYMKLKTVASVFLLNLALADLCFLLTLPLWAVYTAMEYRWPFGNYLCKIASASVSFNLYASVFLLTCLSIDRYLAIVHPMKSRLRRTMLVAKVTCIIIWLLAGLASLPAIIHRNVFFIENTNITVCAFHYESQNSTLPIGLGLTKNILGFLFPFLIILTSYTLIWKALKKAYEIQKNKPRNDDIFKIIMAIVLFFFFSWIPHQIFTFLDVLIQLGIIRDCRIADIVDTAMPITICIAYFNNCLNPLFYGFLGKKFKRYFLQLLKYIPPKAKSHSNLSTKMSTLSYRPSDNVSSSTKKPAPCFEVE
Briefly: Effect on calcium current in cells stably expressing AT1 receptors (FLIPR, antagonist mode). The test is classed as cell-based. As to conditions: HEK293-AT1 cells, Fluo-8 AM, FLIPR Tetra; read-out: IC50 values of compounds on calcium current in cells stably expressing AT1 receptors. The text has this:
Test Example 1. Determination of the Effect of the Compounds of the Present Invention on Calcium Current in Cells Stably Expressing AT1 Receptors
Antagonistic effect of test compounds on HEK293-AT1 cell activity
• DMEM, high glucose (Gibco: 12100); • Fetal bovine serum (Biosera: FB-1058/500); • P/S (Biosera: XC-A4122); • 5× Matrigel (Corning: 354230); • HBSS (Sigma: H1387); • HEPES (Invitrogen: 15630080); • Fluo-8 AM (AAT Bioquest: 21080); • Probenecid (Sigma: P8761); • Pluronic F-127 (Sigma: P2443-250G); • Angiotensin III TFA (MCE: HY-113035A); • Irbesartan (MCE: HY—B0202); • 1000× Fluo-8 AM (2 mM): Fluo-8 AM was dissolved in DMSO, the mixture was shaken for 1-2 min, sub-packaged and stored at −20° C.; • Complete culture medium: DMEM+10% FBS+1×P/S; • Cell seeding medium: DMEM+10% FBS+1×PS; • Experimental buffer 1: 1×HBSS+20 mM HEPES+1 mM Probenecid+0.025% Pluronic F-127; • Experimental buffer 2: 1×HBSS+20 mM HEPES+0.075% Pluronic F-127; • 1× Matrigel: 5× Matrigel was diluted with DMEM; • Cell line: HDB HEK293-AT1.
• 1) HEK293-AT1 cell line was cultured in complete culture medium at 37° C., 5% CO2 to 70%-90% confluence. • 2) the 384-well cell plate was coated with 1× Matrigel with 5 μL/well at room temperature for 10 to 30 min. • 3) the cells were digested and resuspended in cell seeding medium, inoculation was performed at 8,000 cells/well/20 μL in a 384-well cell culture plate, and the cells were cultured at 37° C., 5% CO2 for 24 h. • 4) the cell culture plate was taken out of the CO2 incubator and equilibrated at room temperature for 10 min. • 5) 1000× Fluo-8 AM was taken and diluted to 1× Fluo-8 AM with experimental buffer 1 that has been equilibrated to room temperature, with a concentration of 2 μM. • 6) the culture medium was removed from the cell culture plate, 20 μL of 1× Fluo-8 AM was added to each well, the mixture was centrifuged at 300 rpm for 60 seconds at room temperature, and incubated at room temperature in the dark for 1 h. • 7) positive control compound and test compound working solution (3×) were formulated: • (1) instrument Bravo was used to dilute the compound to 11 concentration points on the 384-well Echo compound plate (LABCYTE: LP-0200); • (2) instrument ECHO was used to transfer 90 nL of compound per well (compound storage concentration, such as the highest concentration point 10 mM) to the 384-well compound plate (PE: 6008590); • (3) Multidrop Combi was used to add 30 μL of experimental buffer 2 to the 384-well compound plate (PE: 6008590), the positive control compound and test compound were diluted to 30 μM (3×), and placed at room temperature until use. • 8) FLIPR Tetra was used to add 10 μL of diluted 3× compound into the experimental well of the corresponding 384-well cell plate, the compound and cells were incubated for 10 min at room temperature, then 10 μL of diluted 4× agonist was added, and the data was read and collected at the same time.
FLIPR Tetra was used to read and collect the fluorescence signal value (RFU). The maximum RFU value was used to calculate the percent activation data based on the readings of the Low control (DMSO control) and High control (100 nM positive compound) experimental groups {% activation rate=(RFUsample−RFUlow control)/(RFUhigh control−RFUlow control)×100}. The concentration of the test compound was 11 concentrations after diluting the reaction system 3 times, ranging from 10 uM to 0.17 nM.
For `CCCCC1=NC2(CCCC2)C(=O)N1Cc1ccc(-c2ccccc2S(=O)(=O)Nc2noc(C)c2Cl)c(OCCC)c1` [Example 55, 4′-((2-butyl-4-oxo-1,3-diazaspiro[4.4]non-1-en-3-yl)methyl)-N-(4-chloro-5-methylisoxazol-3-yl)-2′-propoxy-[1,1′-biphenyl]-2-sulfonamide], the IC50 (commonly the concentration that gives 50% inhibition) was 3.7 nM.

Take `CCCCC1=NC2(CCCC2)C(=O)N1Cc1ccc(-c2ccccc2S(=O)(=O)Nc2noc(C)c2Cl)c(COC)c1` [Example 53, 4′-((2-butyl-4-oxo-1,3-diazaspiro[4.4]non-1-en-3-yl)methyl)-N-(4-chloro-5-methylisoxazol-3-yl)-2′-(methoxymethyl)-[1,1′-biphenyl]-2-sulfonamide]: the IC50 stood at 9.1 nM. As to `CCCCC1=NC2(CCCC2)C(=O)N1Cc1ccc(-c2ccccc2S(=O)(=O)Nc2noc(C)c2C)c(COC2CC2)c1` [Example 13, 4′-((2-butyl-4-oxo-1,3-diazaspiro[4.4]non-1-en-3-yl)methyl)-2′-(cyclopropoxymethyl)-N-(4,5-dimethylisoxazol-3-yl)-[1,1′-biphenyl]-2-sulfonamide], the IC50 was found to be 10 nM. Consider `CCCCC1=NC2(CCCC2)C(=O)N1Cc1ccc(-c2ccccc2S(=O)(=O)Nc2noc(C)c2Cl)c(COC2CC2)c1` [Example 52, 4′-((2-butyl-4-oxo-1,3-diazaspiro[4.4]non-1-en-3-yl)methyl)-N-(4-chloro-5-methylisoxazol-3-yl)-2′-(cyclopropoxymethyl)-[1,1′-biphenyl]-2-sulfonamide], for which the IC50 was 8.6 nM. `CCCCC1=NC2(CCCC2)C(=O)N1Cc1ccc(-c2ccccc2S(=O)(=O)Nc2noc(C)c2Cl)c(COCC2CC2)c1` [Example 85, 4′-((2-butyl-4-oxo-1,3-diazospiro[4.4]non-1-en-3-yl)methyl)-N-(4-chloro-5-methylisoxazol-3-yl)-2′-((cyclopropylmethoxy)methyl)-[1,1′-biphenyl]-2-sulfonamide]: the IC50 was 5.2 nM. The value for `CCCCC1=NC2(CCCC2)C(=O)N1Cc1ccc(-c2ccccc2S(=O)(=O)Nc2noc(C)c2Cl)c(COC(C)C)c1` [Example 72, 4′-((2-butyl-4-oxo-1,3-diazaspiro[4.4]non-1-en-3-yl)methyl)-N-(4-chloro-5-methylisoxazol-3-yl)-2′-(isopropoxymethyl)-[1,1′-biphenyl]-2-sulfonamide] was 6.1 nM.

(Values after patent US20240368123A1, “AROMATIC RING-CONTAINING BIOLOGICAL ANTAGONIST, AND PREPARATION METHOD THEREFOR AND USE THEREOF” (SHANGHAI HANSOH BIOMEDICAL CO., LTD., priority 2021, published 2024).)
